According to US20250230193A1, “CYCLIC COMPOUND HAVING SELECTIVE KRAS INHIBITORY EFFECT ON HRAS AND NRAS” (CHUGAI SEIYAKU KABUSHIKI KAISHA, priority 2022, published 2025):

Legend:
[1] = biological target: GDP-bound NRAS wild-type protein (Homo sapiens, UniProt P01111); assay: Binding to NRAS by surface plasmon resonance (SPR), Single Cycle Kinetics; conditions: for NRAS/KRAS (ratio of KD value with respect to NRAS to KD value with respect to KRAS): SPR, GDP-bound NRAS wild-type vs GDP-bound KRAS wild-type; for NRAS/KRAS (ratio of KD value with respect to GDP-bound NRAS wild-type protein to KD value with respect to KRAS): class symbols
Chain of GDP-bound NRAS wild-type protein (P01111 whole entry): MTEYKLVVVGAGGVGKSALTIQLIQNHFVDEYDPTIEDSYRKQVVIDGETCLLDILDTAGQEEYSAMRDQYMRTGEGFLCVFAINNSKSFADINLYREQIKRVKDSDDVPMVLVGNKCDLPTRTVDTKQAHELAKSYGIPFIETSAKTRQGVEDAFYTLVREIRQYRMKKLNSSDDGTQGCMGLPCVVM

[2] = biological target: GDP-bound HRAS wild-type protein (Homo sapiens, UniProt P01112); assay: Binding to HRAS by surface plasmon resonance (SPR), Single Cycle Kinetics; conditions: for HRAS/KRAS (ratio of KD value with respect to HRAS to KD value with respect to KRAS): SPR, GDP-bound HRAS wild-type vs GDP-bound KRAS wild-type; for HRAS/KRAS (ratio of KD value with respect to GDP-bound HRAS wild-type protein to KD value with respect to KRAS): class symbols
Chain of GDP-bound HRAS wild-type protein (P01112 whole entry): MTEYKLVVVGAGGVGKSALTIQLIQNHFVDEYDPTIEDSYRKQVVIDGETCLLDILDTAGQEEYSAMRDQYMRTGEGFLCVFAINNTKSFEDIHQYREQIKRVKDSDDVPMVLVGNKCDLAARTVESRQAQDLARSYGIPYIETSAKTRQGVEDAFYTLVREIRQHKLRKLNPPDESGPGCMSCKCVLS

Row | SMILES | NRAS/KRAS (ratio of KD value with respect to NRAS to KD value with respect to KRAS) [1] | HRAS/KRAS (ratio of KD value with respect to HRAS to KD value with respect to KRAS) [2] | NRAS/KRAS (ratio of KD value with respect to GDP-bound NRAS wild-type protein to KD value with respect to KRAS) [1] | HRAS/KRAS (ratio of KD value with respect to GDP-bound HRAS wild-type protein to KD value with respect to KRAS) [2]
1 | CC[C@H](C)[C@@H]1NC(=O)[C@H](COC)N(C)C(=O)C[C@@H](C(=O)N(C)C)N(C)C(=O)[C@H](C2CCCC2)N(C)C(=O)C2(CC(C)(C)C2)NC(=O)[C@@H]2C[C@@H](OC(C)C)CN2C(=O)[C@H](CCc2cc(F)c(C(F)(F)F)c(F)c2)NC(=O)CN(C)C(=O)[C@H](CC2CCCCC2)N2CC/C=C\C[C@@H](C2=O)N(C)C(=O)CN(C2CC2)C1=O [PP2511] | A (a compound having 10 or more and less than 20 is denoted as A) | A (a compound having 10 or more and less than 20 is denoted as A) |  | 
2 | C#CCN1CC(=O)N(C)[C@H]2C/C=C\CCN(C2=O)[C@@H](Cc2ccc(C)cc2)C(=O)N(C)CC(=O)N[C@@H](CCc2cc(F)c(C(F)(F)F)c(F)c2)C(=O)N2C[C@H](OCC)C[C@H]2C(=O)NC2(CC(C)(C)C2)C(=O)N(C)[C@@H](C2CCCC2)C(=O)N(C)[C@H](C(=O)N(C)C)CC(=O)N(C)[C@@H](CCC)C(=O)N[C@@H](CC(C)C)C1=O [PP2512] | A (a compound having 10 or more and less than 20 is denoted as A) | A (a compound having 10 or more and less than 20 is denoted as A) |  | 
3 | CC[C@H](C)[C@@H]1NC(=O)[C@H](COC)N(C)C(=O)C[C@@H](C(=O)N(C)C)N(C)C(=O)[C@H](C2CCCC2)N(C)C(=O)C2(CC(C)(C)C2)NC(=O)[C@@H]2C[C@@H](OC(C)C)CN2C(=O)[C@H](CCc2ccc(Cl)c(Cl)c2)NC(=O)CN(C)C(=O)[C@H](CC2CCCCC2)N2CC/C=C\C[C@@H](C2=O)N(C)C(=O)CN(C2CC2)C1=O [PP2513] | A (a compound having 10 or more and less than 20 is denoted as A) | A (a compound having 10 or more and less than 20 is denoted as A) |  | 
4 | C#CCN1CC(=O)N(C)[C@H]2C/C=C\CCN(C2=O)[C@@H](Cc2ccc(C)cc2)C(=O)N(C)CC(=O)N[C@@H](CCc2ccc(C(F)(F)F)c(OC)c2)C(=O)N2C[C@H](OCC)C[C@H]2C(=O)NC2(CC(C)(C)C2)C(=O)N(C)[C@@H](C2CCCC2)C(=O)N(C)[C@H](C(=O)N(C)C)CC(=O)N(C)[C@@H](CCC)C(=O)N[C@@H](CC(C)C)C1=O [PP2514] | A (a compound having 10 or more and less than 20 is denoted as A) | B (a compound having 3 or more and less than 10 is denoted as B) |  | 
5 | CCC(CC)[C@H]1C(=O)N(C)[C@H](C(=O)N(C)C)CC(=O)N(C)[C@@H](COC)C(=O)N[C@@H]([C@@H](C)CC)C(=O)N(C2CC2)CC(=O)N(C)[C@H]2C/C=C\CCN(C2=O)[C@@H](CC2CCCCC2)C(=O)N(C)CC(=O)N[C@@H](CCc2cc(F)c(C(F)(F)F)c(F)c2)C(=O)N2C[C@H](OC(C)C)C[C@H]2C(=O)NC2(CC(C)(C)C2)C(=O)N1C [PP2515] | A (a compound having 10 or more and less than 20 is denoted as A) | A (a compound having 10 or more and less than 20 is denoted as A) |  | 
6 | CCC[C@H]1C(=O)N[C@@H](CC(C)C)C(=O)N(CC)CC(=O)N(C)[C@H]2C/C=C\CCN(C2=O)[C@@H](Cc2ccc(C)cc2)C(=O)N(C)CC(=O)N[C@@H](CCc2cc(F)c(C(F)(F)F)c(F)c2)C(=O)N2C[C@H](OCC)C[C@H]2C(=O)NC2(CC(C)(C)C2)C(=O)N(C)[C@@H](C2CCCC2)C(=O)N(C)[C@H](C(=O)N(C)C)CC(=O)N1C [PP2516] | A (a compound having 10 or more and less than 20 is denoted as A) | B (a compound having 3 or more and less than 10 is denoted as B) |  | 
7 | CCC[C@H]1C(=O)N[C@@H](CC(C)C)C(=O)N(CC)CC(=O)N(C)[C@H]2C/C=C\CCN(C2=O)[C@@H](Cc2ccc(C)cc2)C(=O)N(C)CC(=O)N[C@@H](CCc2ccc(C(F)(F)F)c(OC)c2)C(=O)N2C[C@H](OCC)C[C@H]2C(=O)NC2(CC(C)(C)C2)C(=O)N(C)[C@@H](C2CCCC2)C(=O)N(C)[C@H](C(=O)N(C)C)CC(=O)N1C [PP2518] | A (a compound having 10 or more and less than 20 is denoted as A) | A (a compound having 10 or more and less than 20 is denoted as A) |  | 
8 | CCC[C@H]1C(=O)N[C@@H](CC(C)C)C(=O)N(CCOC)CC(=O)N(C)[C@H]2C/C=C\CCN(C2=O)[C@@H](Cc2ccc(C)cc2)C(=O)N(C)CC(=O)N[C@@H](CCc2cc(F)c(C(F)(F)F)c(F)c2)C(=O)N2C[C@H](OCC)C[C@H]2C(=O)NC2(CC(C)(C)C2)C(=O)N(C)[C@@H](C2CCCC2)C(=O)N(C)[C@H](C(=O)N(C)C)CC(=O)N1C [PP2520] | A (a compound having 10 or more and less than 20 is denoted as A) | A (a compound having 10 or more and less than 20 is denoted as A) |  | 
9 | CCC[C@H]1C(=O)N[C@@H]([C@@H](C)CC)C(=O)N(C2CC2)CC(=O)N(C)[C@H]2C/C=C\CCN(C2=O)[C@@H](CC2CCC(F)(F)CC2)C(=O)N(C)CC(=O)N[C@@H](CCc2ccc(Cl)c(Cl)c2)C(=O)N2C[C@H](OC(C)C)C[C@H]2C(=O)NC2(CC(C)(C)C2)C(=O)N(C)[C@@H](C2CCCC2)C(=O)N(C)[C@H](C(=O)N(C)C)CC(=O)N1C [PP2521] | A (a compound having 10 or more and less than 20 is denoted as A) | A (a compound having 10 or more and less than 20 is denoted as A) |  | 
10 | CCC[C@H]1C(=O)N[C@@H](CC(C)C)C(=O)N(CCOC)CC(=O)N(C)[C@H]2C/C=C\CCN(C2=O)[C@@H](Cc2ccc(C)cc2)C(=O)N(C)CC(=O)N[C@@H](CCc2ccc(C(F)(F)F)c(OC)c2)C(=O)N2C[C@H](OCC)C[C@H]2C(=O)NC2(CC(C)(C)C2)C(=O)N(C)[C@@H](C2CCCC2)C(=O)N(C)[C@H](C(=O)N(C)C)CC(=O)N1C [PP2522] |  |  | B (a compound having 3 or more and less than 10 is denoted as B) | B (a compound having 3 or more and less than 10 is denoted as B)
11 | CCC(CC)[C@H]1C(=O)N(C)[C@H](C(=O)N(C)C)CC(=O)N(C)[C@@H](COC)C(=O)N[C@@H]([C@@H](C)CC)C(=O)N(C2CC2)CC(=O)N(C)[C@H]2C/C=C\CCN(C2=O)[C@@H](CC2CCC(F)(F)CC2)C(=O)N(C)CC(=O)N[C@@H](CCc2cc(F)c(C(F)(F)F)c(F)c2)C(=O)N2C[C@H](OC(C)C)C[C@H]2C(=O)NC2(CC(C)(C)C2)C(=O)N1C [PP2523] |  |  | A (a compound having 10 or more and less than 20 is denoted as A) | A (a compound having 10 or more and less than 20 is denoted as A)
12 | CCC(CC)[C@H]1C(=O)N(C)[C@H](C(=O)N(C)C)CC(=O)N(C)[C@@H](COC)C(=O)N[C@@H]([C@@H](C)CC)C(=O)N(C2CC2)CC(=O)N(C)[C@H]2C/C=C\CCN(C2=O)[C@@H](CC2CCC(F)(F)CC2)C(=O)N(C)CC(=O)N[C@@H](CCc2ccc(Cl)c(Cl)c2)C(=O)N2C[C@H](OC(C)C)C[C@H]2C(=O)NC2(CC(C)(C)C2)C(=O)N1C [PP2525] |  |  | AA (a compound having 20 or more is denoted as AA) | A (a compound having 10 or more and less than 20 is denoted as A)
13 | C#CCN1CC(=O)N(C)[C@H]2C/C=C\CCN(C2=O)[C@@H](Cc2ccc(C)cc2)C(=O)N(C)CC(=O)N[C@@H](CCc2ccc(C(F)(F)F)c(Cl)c2)C(=O)N2C[C@H](OCC)C[C@H]2C(=O)NC2(CC(C)(C)C2)C(=O)N(C)[C@@H](C2CCCC2)C(=O)N(C)[C@H](C(=O)N(C)C)CC(=O)N(C)[C@@H](CCC)C(=O)N[C@@H](CC(C)C)C1=O [PP2526] |  |  | A (a compound having 10 or more and less than 20 is denoted as A) | B (a compound having 3 or more and less than 10 is denoted as B)
14 | CCC[C@H]1C(=O)N[C@@H]([C@@H](C)CC)C(=O)N(C2CC2)CC(=O)N(C)[C@H]2C/C=C\CCN(C2=O)[C@@H](Cc2ccc(C(F)F)cc2)C(=O)N(C)CC(=O)N[C@@H](CCc2cc(F)c(C(F)(F)F)c(F)c2)C(=O)N2C[C@H](OCC)C[C@H]2C(=O)NC2(CC(C)(C)C2)C(=O)N(C)[C@@H](C(CC)CC)C(=O)N(C)[C@H](C(=O)N(C)C)CC(=O)N1C [PP2527] |  |  | AA (a compound having 20 or more is denoted as AA) | A (a compound having 10 or more and less than 20 is denoted as A)
15 | CCC[C@H]1C(=O)N[C@@H](CC(C)C)C(=O)N(CC)CC(=O)N(C)[C@H]2C/C=C\CCN(C2=O)[C@@H](Cc2ccc(C)cc2)C(=O)N(C)CC(=O)N[C@@H](CCc2ccc(C(F)(F)F)c(Cl)c2)C(=O)N2C[C@H](OCC)C[C@H]2C(=O)NC2(CC(C)(C)C2)C(=O)N(C)[C@@H](C2CCCC2)C(=O)N(C)[C@H](C(=O)N(C)C)CC(=O)N1C [PP2528] |  |  | A (a compound having 10 or more and less than 20 is denoted as A) | B (a compound having 3 or more and less than 10 is denoted as B)
16 | CCC[C@H]1C(=O)N[C@@H]([C@@H](C)CC)C(=O)N(C2CC2)CC(=O)N(C)[C@H]2C/C=C\CCN(C2=O)[C@@H](Cc2ccc(C(F)F)cc2)C(=O)N(C)CC(=O)N[C@@H](CCc2cc(F)c(C(F)(F)F)c(F)c2)C(=O)N2C[C@H](OC(C)C)C[C@H]2C(=O)NC2(CC(C)(C)C2)C(=O)N(C)[C@@H](C(CC)CC)C(=O)N(C)[C@H](C(=O)N(C)C)CC(=O)N1C [PP2529] |  |  | AA (a compound having 20 or more is denoted as AA) | A (a compound having 10 or more and less than 20 is denoted as A)
